ChEMBL document CHEMBL1132094, “Human telomerase inhibition by substituted acridine derivatives” (Bioorg Med Chem Lett, 1999)
Active and inactive are the calls of the source. The rule behind the calls is not given here.

Tested on: A2780
Test: In vitro cytotoxicity against human ovarian carcinoma cell line A2780 using sulforhodamine B (SRB) assay
Format: functional, cell-based

Structure (SMILES) | IC50
O=C(CCN1CCCCCCC1)Nc1ccc2cc3ccc(NC(=O)CCN4CCCCCCC4)cc3nc2c1 | 1300 nM
CN(C)CCC(=O)Nc1ccc2cc3ccc(NC(=O)CCN(C)C)cc3nc2c1 | 750 nM
O=C(CCN1CCC(O)CC1)Nc1ccc2cc3ccc(NC(=O)CCN4CCC(O)CC4)cc3nc2c1 | 6200 nM
CC1CCCCN1CCC(=O)Nc1ccc2cc3ccc(NC(=O)CCN4CCCCC4C)cc3nc2c1 (stereo unspecified) | 1750 nM
O=C(CCN1CCOCC1)Nc1ccc2cc3ccc(NC(=O)CCN4CCOCC4)cc3nc2c1 | 3100 nM
O=C(CCN1CCCC1)Nc1ccc2cc3ccc(NC(=O)CCN4CCCC4)cc3nc2c1 | 2650 nM
CCN(CC)CCC(=O)Nc1ccc2cc3ccc(NC(=O)CCN(CC)CC)cc3nc2c1 | 570 nM
O=C(CCN1CCCCCC1)Nc1ccc2cc3ccc(NC(=O)CCN4CCCCCC4)cc3nc2c1 | 1100 nM

Tested on: CH1
Test: In vitro cytotoxicity against human ovarian carcinoma cell line CH1 using sulforhodamine B (SRB) assay
Format: functional, cell-based

Structure (SMILES) | IC50
O=C(CCN1CCCCCCC1)Nc1ccc2cc3ccc(NC(=O)CCN4CCCCCCC4)cc3nc2c1 | 2200 nM
CN(C)CCC(=O)Nc1ccc2cc3ccc(NC(=O)CCN(C)C)cc3nc2c1 | 9800 nM
O=C(CCN1CCC(O)CC1)Nc1ccc2cc3ccc(NC(=O)CCN4CCC(O)CC4)cc3nc2c1 | 15000 nM
CC1CCCCN1CCC(=O)Nc1ccc2cc3ccc(NC(=O)CCN4CCCCC4C)cc3nc2c1 (stereo unspecified) | 2300 nM
O=C(CCN1CCOCC1)Nc1ccc2cc3ccc(NC(=O)CCN4CCOCC4)cc3nc2c1 | 15000 nM
O=C(CCN1CCCC1)Nc1ccc2cc3ccc(NC(=O)CCN4CCCC4)cc3nc2c1 | 8200 nM
CCN(CC)CCC(=O)Nc1ccc2cc3ccc(NC(=O)CCN(CC)CC)cc3nc2c1 | 2450 nM
O=C(CCN1CCCCCC1)Nc1ccc2cc3ccc(NC(=O)CCN4CCCCCC4)cc3nc2c1 | 1850 nM

Target: DNA polymerase I, thermostable (Thermus aquaticus) (UniProt P19821)
Test: Ability to inhibit Taq polymerase in vitro at a concentration of 10 uM; NI means No inhibition

DNA polymerase I, thermostable (Thermus aquaticus), sequence (P19821 whole entry): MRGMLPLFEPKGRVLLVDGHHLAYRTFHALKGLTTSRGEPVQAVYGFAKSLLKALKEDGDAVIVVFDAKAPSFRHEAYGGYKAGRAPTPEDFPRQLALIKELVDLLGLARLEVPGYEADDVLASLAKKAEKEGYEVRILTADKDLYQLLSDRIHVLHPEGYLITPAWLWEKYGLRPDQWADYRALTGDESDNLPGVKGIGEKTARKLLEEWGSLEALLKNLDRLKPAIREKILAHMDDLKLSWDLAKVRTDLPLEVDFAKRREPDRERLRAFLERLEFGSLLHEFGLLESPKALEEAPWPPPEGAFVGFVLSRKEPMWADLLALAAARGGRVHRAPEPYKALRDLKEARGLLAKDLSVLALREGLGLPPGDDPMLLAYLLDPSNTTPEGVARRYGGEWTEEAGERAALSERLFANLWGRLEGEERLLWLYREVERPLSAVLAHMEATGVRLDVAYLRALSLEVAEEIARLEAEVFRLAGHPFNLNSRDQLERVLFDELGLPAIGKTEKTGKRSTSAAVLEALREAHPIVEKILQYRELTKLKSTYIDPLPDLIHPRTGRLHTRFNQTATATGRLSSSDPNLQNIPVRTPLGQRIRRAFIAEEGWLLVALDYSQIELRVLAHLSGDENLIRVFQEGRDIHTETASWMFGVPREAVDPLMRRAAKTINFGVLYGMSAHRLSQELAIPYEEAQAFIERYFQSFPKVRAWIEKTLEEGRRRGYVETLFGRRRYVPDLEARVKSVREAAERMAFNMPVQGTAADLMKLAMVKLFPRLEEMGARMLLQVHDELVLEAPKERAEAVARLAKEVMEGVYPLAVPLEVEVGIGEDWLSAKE

inhibition | Structure (SMILES)
inactive | O=C(CCN1CCCCCCC1)Nc1ccc2cc3ccc(NC(=O)CCN4CCCCCCC4)cc3nc2c1
inactive | CN(C)CCC(=O)Nc1ccc2cc3ccc(NC(=O)CCN(C)C)cc3nc2c1
inactive | O=C(CCN1CCC(O)CC1)Nc1ccc2cc3ccc(NC(=O)CCN4CCC(O)CC4)cc3nc2c1
inactive | CC1CCCCN1CCC(=O)Nc1ccc2cc3ccc(NC(=O)CCN4CCCCC4C)cc3nc2c1 (stereo unspecified)
inactive | O=C(CCN1CCOCC1)Nc1ccc2cc3ccc(NC(=O)CCN4CCOCC4)cc3nc2c1
inactive | CCN(CC)CCC(=O)Nc1ccc2cc3ccc(NC(=O)CCN(CC)CC)cc3nc2c1
inactive | O=C(CCN1CCCCCC1)Nc1ccc2cc3ccc(NC(=O)CCN4CCCCCC4)cc3nc2c1

Structure (SMILES) | inhibition
O=C(CCN1CCCC1)Nc1ccc2cc3ccc(NC(=O)CCN4CCCC4)cc3nc2c1 | inactive

Target: DNA polymerase I, thermostable (Thermus aquaticus) (UniProt P19821)
Test: Ability to inhibit Taq polymerase in vitro at a concentration of 20 uM; NI means No inhibition

inhibition | Structure (SMILES)
inactive | O=C(CCN1CCCCCCC1)Nc1ccc2cc3ccc(NC(=O)CCN4CCCCCCC4)cc3nc2c1
inactive | CN(C)CCC(=O)Nc1ccc2cc3ccc(NC(=O)CCN(C)C)cc3nc2c1
inactive | O=C(CCN1CCC(O)CC1)Nc1ccc2cc3ccc(NC(=O)CCN4CCC(O)CC4)cc3nc2c1
inactive | CC1CCCCN1CCC(=O)Nc1ccc2cc3ccc(NC(=O)CCN4CCCCC4C)cc3nc2c1 (stereo unspecified)
inactive | O=C(CCN1CCOCC1)Nc1ccc2cc3ccc(NC(=O)CCN4CCOCC4)cc3nc2c1
inactive | CCN(CC)CCC(=O)Nc1ccc2cc3ccc(NC(=O)CCN(CC)CC)cc3nc2c1
inactive | O=C(CCN1CCCCCC1)Nc1ccc2cc3ccc(NC(=O)CCN4CCCCCC4)cc3nc2c1

Structure (SMILES) | inhibition
O=C(CCN1CCCC1)Nc1ccc2cc3ccc(NC(=O)CCN4CCCC4)cc3nc2c1 | inactive

Target: DNA polymerase I, thermostable (Thermus aquaticus) (UniProt P19821)
Test: Ability to inhibit Taq polymerase in vitro at a concentration of 50 uM; NI means No inhibition

inhibition | Structure (SMILES)
inactive | O=C(CCN1CCCCCCC1)Nc1ccc2cc3ccc(NC(=O)CCN4CCCCCCC4)cc3nc2c1
inactive | CN(C)CCC(=O)Nc1ccc2cc3ccc(NC(=O)CCN(C)C)cc3nc2c1
inactive | O=C(CCN1CCC(O)CC1)Nc1ccc2cc3ccc(NC(=O)CCN4CCC(O)CC4)cc3nc2c1
inactive | CC1CCCCN1CCC(=O)Nc1ccc2cc3ccc(NC(=O)CCN4CCCCC4C)cc3nc2c1 (stereo unspecified)
inactive | O=C(CCN1CCOCC1)Nc1ccc2cc3ccc(NC(=O)CCN4CCOCC4)cc3nc2c1
inactive | CCN(CC)CCC(=O)Nc1ccc2cc3ccc(NC(=O)CCN(CC)CC)cc3nc2c1
inactive | O=C(CCN1CCCCCC1)Nc1ccc2cc3ccc(NC(=O)CCN4CCCCCC4)cc3nc2c1

Structure (SMILES) | inhibition
O=C(CCN1CCCC1)Nc1ccc2cc3ccc(NC(=O)CCN4CCCC4)cc3nc2c1 | inactive

Target: Telomerase reverse transcriptase (Homo sapiens, UniProt O14746)
Test: Ability to inhibit human telomerase in a modified cell-free TRAP assay using extracts from A2780 cell line

Telomerase reverse transcriptase, sequence (O14746 whole entry): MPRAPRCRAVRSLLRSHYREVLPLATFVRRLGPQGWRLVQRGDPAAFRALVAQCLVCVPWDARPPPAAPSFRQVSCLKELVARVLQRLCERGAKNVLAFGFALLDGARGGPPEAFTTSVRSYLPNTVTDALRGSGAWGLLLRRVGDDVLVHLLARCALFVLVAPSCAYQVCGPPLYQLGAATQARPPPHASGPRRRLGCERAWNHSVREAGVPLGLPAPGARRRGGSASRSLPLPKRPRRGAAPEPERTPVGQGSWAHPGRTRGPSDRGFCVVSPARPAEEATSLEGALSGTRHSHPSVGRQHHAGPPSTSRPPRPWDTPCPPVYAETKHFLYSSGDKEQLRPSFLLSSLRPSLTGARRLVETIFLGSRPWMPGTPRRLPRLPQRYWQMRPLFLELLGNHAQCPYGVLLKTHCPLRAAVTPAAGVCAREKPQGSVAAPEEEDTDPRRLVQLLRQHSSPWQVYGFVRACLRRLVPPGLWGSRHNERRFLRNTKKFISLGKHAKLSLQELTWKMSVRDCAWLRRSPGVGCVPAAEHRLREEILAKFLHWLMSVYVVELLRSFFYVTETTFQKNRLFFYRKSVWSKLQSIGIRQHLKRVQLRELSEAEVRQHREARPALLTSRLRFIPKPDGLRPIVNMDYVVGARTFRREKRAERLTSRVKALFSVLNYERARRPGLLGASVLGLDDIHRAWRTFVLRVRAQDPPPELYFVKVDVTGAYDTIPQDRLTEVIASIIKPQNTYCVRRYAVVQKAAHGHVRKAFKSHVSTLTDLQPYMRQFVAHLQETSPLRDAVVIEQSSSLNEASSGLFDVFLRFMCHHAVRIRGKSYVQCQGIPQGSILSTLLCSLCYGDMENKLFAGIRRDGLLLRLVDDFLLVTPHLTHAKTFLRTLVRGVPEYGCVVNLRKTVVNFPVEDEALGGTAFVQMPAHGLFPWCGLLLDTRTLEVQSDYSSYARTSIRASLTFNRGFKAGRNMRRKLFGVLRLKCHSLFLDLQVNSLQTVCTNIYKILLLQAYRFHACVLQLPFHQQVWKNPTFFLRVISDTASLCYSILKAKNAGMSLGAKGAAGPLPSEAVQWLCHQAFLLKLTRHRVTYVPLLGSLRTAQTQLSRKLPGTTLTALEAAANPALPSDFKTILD

IC50 | Structure (SMILES)
> 50000 nM | O=C(CCN1CCCCCCC1)Nc1ccc2cc3ccc(NC(=O)CCN4CCCCCCC4)cc3nc2c1
8200 nM | CN(C)CCC(=O)Nc1ccc2cc3ccc(NC(=O)CCN(C)C)cc3nc2c1
8000 nM | O=C(CCN1CCC(O)CC1)Nc1ccc2cc3ccc(NC(=O)CCN4CCC(O)CC4)cc3nc2c1
2600 nM | CC1CCCCN1CCC(=O)Nc1ccc2cc3ccc(NC(=O)CCN4CCCCC4C)cc3nc2c1 (stereo unspecified)
> 50000 nM | O=C(CCN1CCOCC1)Nc1ccc2cc3ccc(NC(=O)CCN4CCOCC4)cc3nc2c1
5800 nM | CCN(CC)CCC(=O)Nc1ccc2cc3ccc(NC(=O)CCN(CC)CC)cc3nc2c1
3100 nM | O=C(CCN1CCCCCC1)Nc1ccc2cc3ccc(NC(=O)CCN4CCCCCC4)cc3nc2c1

Structure (SMILES) | IC50
O=C(CCN1CCCC1)Nc1ccc2cc3ccc(NC(=O)CCN4CCCC4)cc3nc2c1 | 5200 nM

Tested on: SK-OV-3
Test: In vitro cytotoxicity against human ovarian carcinoma cell line SKOV-3 using sulforhodamine B (SRB) assay
Format: functional, cell-based

Structure (SMILES) | IC50
O=C(CCN1CCCCCCC1)Nc1ccc2cc3ccc(NC(=O)CCN4CCCCCCC4)cc3nc2c1 | 2300 nM
CN(C)CCC(=O)Nc1ccc2cc3ccc(NC(=O)CCN(C)C)cc3nc2c1 | 2500 nM
O=C(CCN1CCC(O)CC1)Nc1ccc2cc3ccc(NC(=O)CCN4CCC(O)CC4)cc3nc2c1 | 13000 nM
CC1CCCCN1CCC(=O)Nc1ccc2cc3ccc(NC(=O)CCN4CCCCC4C)cc3nc2c1 (stereo unspecified) | 3400 nM
O=C(CCN1CCOCC1)Nc1ccc2cc3ccc(NC(=O)CCN4CCOCC4)cc3nc2c1 | 13000 nM
O=C(CCN1CCCC1)Nc1ccc2cc3ccc(NC(=O)CCN4CCCC4)cc3nc2c1 | 2600 nM
CCN(CC)CCC(=O)Nc1ccc2cc3ccc(NC(=O)CCN(CC)CC)cc3nc2c1 | 2250 nM
O=C(CCN1CCCCCC1)Nc1ccc2cc3ccc(NC(=O)CCN4CCCCCC4)cc3nc2c1 | 2500 nM
